Calls of active or inactive are those of the source.
Experiments:
[1] = molecular target: Potassium voltage-gated channel subfamily KQT member 2 (Rattus norvegicus, UniProt O88943); assay: blockers of KCNQ2 channel current – cell-based, automated electrophysiology, set II, rat KCNQ2, dose response (AID 588637); type: functional
[2] = molecular target: T1, Mitochondrial peptide methionine sulfoxide reductase (Bos taurus, UniProt P54149); assay: Absorbance-based biochemical high throughput dose response assay for activators of Methionine sulfoxide reductase A (MsrA).; type: functional
[3] = Trypanosoma cruzi growth suppression in host cells – NIH3T3 host cells, beta-gal luminescence, confirmation (AID 2044); type: functional, cell-based;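 further: intracellular parasites grown in NIH/3T3 mouse fibroblasts as host cells; luminescent beta-galactosidase reporter signal from transgenic T. cruzi replicating inside host cells; inhibitors lower the luminescence signal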
[4] = NIH3T3 cell viability loss – ATP luminescence, mouse fibroblasts, counter-screen, dose response (AID 2010); type: functional, cell-based;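 further: cells exposed to compound for about 90 hours before reading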
[5] = molecular target: T2, Ubiquitin-conjugating enzyme E2 N (Homo sapiens, UniProt P61088); type: functional;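 further: Dose-response confirmation in a TR-FRET assay detecting UBC13-driven polyubiquitin chain formation, inhibition measured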
T2 sequence (P61088 whole entry): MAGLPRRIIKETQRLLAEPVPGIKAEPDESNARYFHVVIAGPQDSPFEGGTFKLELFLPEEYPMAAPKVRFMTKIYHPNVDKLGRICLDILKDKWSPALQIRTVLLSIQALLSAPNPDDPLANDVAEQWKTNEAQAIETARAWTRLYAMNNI

[6] = molecular target: Neurotensin receptor type 1 (Homo sapiens, UniProt P30989); type: functional;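 further: Image-based confirmatory dose-response assay measuring agonist activity at NTR1; NTR1-expressing U2OS osteosarcoma cells imaged for beta-arrestin GFP spot formation; agonist potency where compounds increase beta-arrestin recruitment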
Melanocortin receptor 4 = Melanocortin receptor 4 (Homo sapiens, UniProt P32245); type: functional, cell-based;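 further: Cell-based assay with luminescence read-out, confirmatory dose-response testing for agonist activity of biased ligands at MC4R; human U2OS cells with tagged receptor and beta-arrestin; potency of agonists that increase receptor coupling to beta-arrestin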
[7] = bead-based luminescence quenchers, dual-tagged ARNT – biochemical, AlphaScreen, cherry-pick, artefact control for ARNT-TACC3 interaction inhibitor project, dose response (AID 651705); type: functional;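 further: AlphaScreen bead proximity signal that flags compounds interfering with the detection technology; potency reflects signal decrease which marks the compound as an assay artifact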
[8] = reduction of Shn3 3'UTR-driven luciferase in osteoblasts – cell-based, Clone20 osteoblasts, firefly luciferase, cherry-picked, dose response (AID 624132); type: functional;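 further: firefly luciferase luminescence from reporter carrying the Shn3 3'UTR in osteoblasts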
[9] = loss of viability in HepG2 cells – cell-based, CellTiter-Glo, cherry-picked, cytotoxicity control for Shn3 inhibitor project, dose response (AID 624134); type: functional
[10] = non-specific 3'UTR reporter inhibition in Clone20-Shn3RL – cell-based, Renilla luciferase, cherry-picked, counter-screen for Shn3 inhibitor project, dose response (AID 624133); type: functional
Protein Wnt-3a = Protein Wnt-3a (Mus musculus, UniProt P27467); assay: antagonism of Wnt3a pathway luciferase reporter – Wnt-LIGHT cells, luminescence, selectivity assay for Gli-SUFU antagonist project, dose response (AID 651570); type: functional; settings: read-out: IC50_Mean;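 further: Wnt-LIGHT reporter cells stimulated with conditioned medium from Wnt3a-producing cells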
Cytochrome P450 2D6 = Cytochrome P450 2D6 (Homo sapiens, UniProt P10635);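 further: CYP2D6 member of a cytochrome P450 panel assay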
[11] = molecular target: T3, Heat shock factor protein 1 (Mus musculus, UniProt P38532); assay: decrease of HSF1-responsive luciferase luminescence – cell-based, NIH3T3, dose retest, confirmation (AID 2382); type: functional;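 further: NIH3T3 fibroblasts with HSF1-driven luciferase reporter stressed by proteasome inhibitor MG132; luminescence from HSF1-driven luciferase expression after 8 hours of MG132 stress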
T3 sequence (P38532 whole entry): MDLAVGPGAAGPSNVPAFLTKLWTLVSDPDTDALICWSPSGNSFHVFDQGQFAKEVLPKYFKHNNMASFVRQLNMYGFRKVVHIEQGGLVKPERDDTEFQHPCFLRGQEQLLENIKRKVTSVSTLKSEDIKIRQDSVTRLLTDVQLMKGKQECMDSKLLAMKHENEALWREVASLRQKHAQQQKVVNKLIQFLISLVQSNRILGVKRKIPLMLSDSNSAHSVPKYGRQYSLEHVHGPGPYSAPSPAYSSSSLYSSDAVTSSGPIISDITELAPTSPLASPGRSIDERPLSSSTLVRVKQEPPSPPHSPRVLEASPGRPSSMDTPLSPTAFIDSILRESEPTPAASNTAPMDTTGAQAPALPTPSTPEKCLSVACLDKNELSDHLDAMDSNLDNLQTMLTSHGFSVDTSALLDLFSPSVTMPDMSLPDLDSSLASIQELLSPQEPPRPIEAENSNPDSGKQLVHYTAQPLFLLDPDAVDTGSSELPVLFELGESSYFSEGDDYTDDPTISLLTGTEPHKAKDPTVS

[12] = molecular target: Multidrug resistance protein CDR1 (Candida albicans, UniProt P43071); assay: inhibition of Nile Red efflux via Candida CDR1 – S. cerevisiae AD1-8u, singleplex, Cherry Pick1 hits, dose response (AID 588606); type: functional
[13] = inhibition of ARNT PAS-B/TACC3 complex formation – biochemical, AlphaScreen, cherry-picked samples, confirmation (AID 651703); type: functional, Homo sapiens;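 further: His-tagged ARNT PAS-B domain paired with GST-TACC3 E629A dimer coactivator fragment; potency of inhibitors that break up the complex and lower AlphaScreen signal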
[14] = molecular target: ATP-dependent translocase ABCB1 (Homo sapiens, UniProt P08183); assay: inhibition of P-gp mediated JC-1 efflux – Jurkat-DNR cells, flow cytometry, dose response (AID 1689); type: functional
[15] = molecular target: T4, DNA dC->dU-editing enzyme APOBEC-3G (Homo sapiens, UniProt Q9HC16); assay: inhibition of APOBEC3G ssDNA deamination – biochemical, fluorescence, single-stranded DNA substrate, SAR follow-up (AID 602136); type: functional; settings: read-out: IC50_Mean
[16] = molecular target: T5, DNA dC->dU-editing enzyme APOBEC-3A (Homo sapiens, UniProt P31941); assay: SAR analysis of small molecule inhibitors of APOBEC3A DNA Deaminase via a fluorescence-based single-stranded DNA deaminase assay.; type: functional; settings: read-out: IC50_Mean
[17] = SAR analysis of small molecule activators of Apaf-1 using a LZ-Caspase-9/Caspase-3 Fluorescent Selectivity assay - Set 2.; type: functional; settings: read-out: EC50_Mean
[18] = molecular target: T6, Apoptotic protease-activating factor 1 (Homo sapiens, UniProt O14727); assay: SAR analysis of small molecule Activators of Apaf-1 in a Fluorescent assay - set 2.; type: functional; settings: read-out: EC50_Mean
T6 sequence (O14727 whole entry): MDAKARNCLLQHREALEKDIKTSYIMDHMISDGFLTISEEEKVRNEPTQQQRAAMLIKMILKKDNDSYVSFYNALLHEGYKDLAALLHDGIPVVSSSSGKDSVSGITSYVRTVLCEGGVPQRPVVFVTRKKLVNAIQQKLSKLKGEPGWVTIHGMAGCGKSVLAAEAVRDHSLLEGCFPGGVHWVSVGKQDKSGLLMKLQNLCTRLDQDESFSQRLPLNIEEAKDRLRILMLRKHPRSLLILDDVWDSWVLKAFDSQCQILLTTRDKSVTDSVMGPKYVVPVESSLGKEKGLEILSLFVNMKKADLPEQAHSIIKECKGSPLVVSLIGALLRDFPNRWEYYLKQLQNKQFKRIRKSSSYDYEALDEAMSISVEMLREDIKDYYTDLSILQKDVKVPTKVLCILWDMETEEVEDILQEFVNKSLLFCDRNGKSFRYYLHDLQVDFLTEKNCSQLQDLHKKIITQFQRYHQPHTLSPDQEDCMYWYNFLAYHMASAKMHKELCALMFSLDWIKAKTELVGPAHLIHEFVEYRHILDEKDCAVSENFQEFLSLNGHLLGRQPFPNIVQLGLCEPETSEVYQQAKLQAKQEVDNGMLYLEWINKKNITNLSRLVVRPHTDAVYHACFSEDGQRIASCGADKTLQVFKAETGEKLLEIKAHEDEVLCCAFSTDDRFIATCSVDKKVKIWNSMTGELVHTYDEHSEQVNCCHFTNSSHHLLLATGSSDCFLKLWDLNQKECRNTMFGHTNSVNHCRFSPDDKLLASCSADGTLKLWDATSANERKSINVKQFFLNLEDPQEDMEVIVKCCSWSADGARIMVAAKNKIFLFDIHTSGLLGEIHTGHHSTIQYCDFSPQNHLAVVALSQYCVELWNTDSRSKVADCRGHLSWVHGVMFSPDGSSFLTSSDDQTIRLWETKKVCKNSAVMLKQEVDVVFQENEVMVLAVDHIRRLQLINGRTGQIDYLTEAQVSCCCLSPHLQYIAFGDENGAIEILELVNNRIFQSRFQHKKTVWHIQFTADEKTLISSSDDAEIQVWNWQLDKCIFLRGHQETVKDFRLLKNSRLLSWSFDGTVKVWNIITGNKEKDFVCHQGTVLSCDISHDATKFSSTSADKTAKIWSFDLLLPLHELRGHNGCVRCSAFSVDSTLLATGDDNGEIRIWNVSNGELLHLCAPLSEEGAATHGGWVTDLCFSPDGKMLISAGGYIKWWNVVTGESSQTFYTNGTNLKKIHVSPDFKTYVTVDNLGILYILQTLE

[19] = molecular target: T6, Apoptotic protease-activating factor 1; assay: SAR analysis of small molecule Activators of Apaf-1 in a Fluorescent assay.; type: functional; settings: read-out: EC50_Mean
[20] = molecular target: T5, DNA dC->dU-editing enzyme APOBEC-3A; assay: SAR analysis of small molecule inhibitors of APOBEC3A DNA Deaminase via a fluorescence-based single-stranded DNA deaminase assay - Set 2.; type: functional; settings: read-out: IC50_Mean
[21] = molecular target: T4, DNA dC->dU-editing enzyme APOBEC-3G; assay: SAR analysis of small molecule inhibitors of APOBEC3G DNA Deaminase via a fluorescence-based single-stranded DNA deaminase assay - Set 2.; type: functional; settings: read-out: IC50_Mean
[22] = molecular target: Serine/threonine-protein kinase pim-1 (Homo sapiens, UniProt P11309); type: functional
[23] = molecular target: Hepatocyte nuclear factor 4-alpha (Homo sapiens, UniProt P41235); type: functional, cell-based;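 further: biochemical luminescence-based dose-response counterscreen measuring inhibition of HNF4 dimerization, run alongside a screen for blockers of ABHD5–perilipin-5 interaction; split luciferase complementation of HNF4 fusion proteins in cell lysate measuring dimerization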
[24] = molecular target: T1, Mitochondrial peptide methionine sulfoxide reductase; type: functional
[25] = molecular target: DNA (cytosine-5)-methyltransferase 1 (Homo sapiens, UniProt P26358); assay: inhibition of DNA methylation by DNMT1 – biochemical, fluorescent molecular beacon, confirmation (AID 602386); type: functional
[26] = viability loss in HeLa cells – cytotoxicity control for MgcRacGAP inhibitor project, dose response (AID 624300); type: functional
[27] = molecular target: T7, Rac GTPase-activating protein 1 (Homo sapiens, UniProt Q9H0H5); assay: blockers of MgcRacGAP-driven Rac1 GTP hydrolysis – biochemical, ADP Hunter fluorescence, primary and confirmatory, confirmation (AID 624330); type: functional
T7 sequence (Q9H0H5 whole entry): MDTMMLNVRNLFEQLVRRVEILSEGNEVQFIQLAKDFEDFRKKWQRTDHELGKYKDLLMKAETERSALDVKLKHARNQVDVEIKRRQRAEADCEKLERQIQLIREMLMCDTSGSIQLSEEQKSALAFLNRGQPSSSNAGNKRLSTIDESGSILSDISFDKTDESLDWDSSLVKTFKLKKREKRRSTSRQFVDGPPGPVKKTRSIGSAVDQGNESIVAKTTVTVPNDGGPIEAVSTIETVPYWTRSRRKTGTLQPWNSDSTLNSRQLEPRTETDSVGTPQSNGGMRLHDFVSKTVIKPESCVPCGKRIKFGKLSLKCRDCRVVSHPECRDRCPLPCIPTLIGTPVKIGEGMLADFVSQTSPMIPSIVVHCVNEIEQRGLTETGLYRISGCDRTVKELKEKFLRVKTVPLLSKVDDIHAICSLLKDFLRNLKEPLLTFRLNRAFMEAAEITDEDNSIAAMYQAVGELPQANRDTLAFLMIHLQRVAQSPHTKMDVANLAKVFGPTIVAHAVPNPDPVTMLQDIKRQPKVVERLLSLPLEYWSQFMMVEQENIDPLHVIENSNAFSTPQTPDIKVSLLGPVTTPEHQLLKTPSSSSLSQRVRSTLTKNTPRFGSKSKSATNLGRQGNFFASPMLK

T5 sequence (P31941 whole entry): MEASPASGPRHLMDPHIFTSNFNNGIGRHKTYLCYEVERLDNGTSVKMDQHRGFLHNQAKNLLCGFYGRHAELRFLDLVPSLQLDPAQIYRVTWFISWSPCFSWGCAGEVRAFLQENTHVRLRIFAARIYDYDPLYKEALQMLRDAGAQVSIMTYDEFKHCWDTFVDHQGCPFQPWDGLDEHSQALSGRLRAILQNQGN
T4 sequence (Q9HC16 whole entry): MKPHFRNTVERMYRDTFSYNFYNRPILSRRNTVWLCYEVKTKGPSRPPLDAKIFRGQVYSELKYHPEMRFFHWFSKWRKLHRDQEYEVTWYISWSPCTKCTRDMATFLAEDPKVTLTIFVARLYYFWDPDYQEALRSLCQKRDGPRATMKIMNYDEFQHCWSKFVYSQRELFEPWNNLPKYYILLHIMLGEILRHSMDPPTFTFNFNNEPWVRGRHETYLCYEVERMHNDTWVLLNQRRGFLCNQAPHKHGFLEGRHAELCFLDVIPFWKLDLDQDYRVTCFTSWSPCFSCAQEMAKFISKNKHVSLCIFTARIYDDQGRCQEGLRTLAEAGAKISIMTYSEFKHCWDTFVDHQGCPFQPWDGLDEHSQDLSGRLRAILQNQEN
T1 sequence (P54149 whole entry): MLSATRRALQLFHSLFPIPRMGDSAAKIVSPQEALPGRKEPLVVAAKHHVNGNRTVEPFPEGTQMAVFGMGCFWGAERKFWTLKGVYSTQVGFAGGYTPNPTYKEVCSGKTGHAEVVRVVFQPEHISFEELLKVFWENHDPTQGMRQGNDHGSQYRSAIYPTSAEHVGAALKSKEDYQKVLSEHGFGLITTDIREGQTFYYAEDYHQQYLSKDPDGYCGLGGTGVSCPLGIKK
Sequence of Potassium voltage-gated channel subfamily KQT member 2 (O88943 whole entry): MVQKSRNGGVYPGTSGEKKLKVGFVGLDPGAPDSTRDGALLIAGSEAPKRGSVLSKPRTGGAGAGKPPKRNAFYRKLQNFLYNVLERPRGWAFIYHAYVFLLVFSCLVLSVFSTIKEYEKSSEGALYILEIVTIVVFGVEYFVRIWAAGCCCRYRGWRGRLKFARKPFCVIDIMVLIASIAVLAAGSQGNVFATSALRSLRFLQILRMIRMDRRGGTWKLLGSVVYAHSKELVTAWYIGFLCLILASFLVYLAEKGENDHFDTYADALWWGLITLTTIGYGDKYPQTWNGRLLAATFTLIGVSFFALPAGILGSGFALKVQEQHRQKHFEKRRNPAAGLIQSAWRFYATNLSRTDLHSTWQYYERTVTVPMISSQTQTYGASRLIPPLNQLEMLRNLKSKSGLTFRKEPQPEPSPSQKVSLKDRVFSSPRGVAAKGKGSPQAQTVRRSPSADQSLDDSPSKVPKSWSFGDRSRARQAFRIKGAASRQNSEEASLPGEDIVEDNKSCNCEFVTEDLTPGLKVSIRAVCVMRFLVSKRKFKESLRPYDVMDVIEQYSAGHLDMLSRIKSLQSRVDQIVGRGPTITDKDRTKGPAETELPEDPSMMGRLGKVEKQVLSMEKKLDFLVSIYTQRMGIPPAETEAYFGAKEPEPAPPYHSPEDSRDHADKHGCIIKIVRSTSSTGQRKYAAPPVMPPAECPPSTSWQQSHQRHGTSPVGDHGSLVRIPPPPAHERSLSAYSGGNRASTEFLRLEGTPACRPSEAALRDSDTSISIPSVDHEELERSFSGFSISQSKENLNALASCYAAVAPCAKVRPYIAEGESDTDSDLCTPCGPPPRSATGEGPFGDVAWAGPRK
Sequence of Hepatocyte nuclear factor 4-alpha (P41235 whole entry, the tested form may be a part): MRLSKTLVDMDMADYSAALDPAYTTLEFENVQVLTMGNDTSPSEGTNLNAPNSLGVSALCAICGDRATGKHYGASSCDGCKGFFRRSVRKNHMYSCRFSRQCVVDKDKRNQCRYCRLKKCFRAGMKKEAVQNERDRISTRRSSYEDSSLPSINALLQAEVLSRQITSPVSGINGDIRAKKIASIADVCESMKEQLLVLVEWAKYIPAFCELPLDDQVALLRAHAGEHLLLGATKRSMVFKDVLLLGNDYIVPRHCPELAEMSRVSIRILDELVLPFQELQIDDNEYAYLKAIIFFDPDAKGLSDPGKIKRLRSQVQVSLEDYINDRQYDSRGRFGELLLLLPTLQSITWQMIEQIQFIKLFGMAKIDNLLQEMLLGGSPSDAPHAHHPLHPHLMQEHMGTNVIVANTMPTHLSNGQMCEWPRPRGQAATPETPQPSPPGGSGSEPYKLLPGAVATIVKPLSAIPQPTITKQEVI
Sequence of Multidrug resistance protein CDR1 (P43071 whole entry, looked up, the tested form may be a part): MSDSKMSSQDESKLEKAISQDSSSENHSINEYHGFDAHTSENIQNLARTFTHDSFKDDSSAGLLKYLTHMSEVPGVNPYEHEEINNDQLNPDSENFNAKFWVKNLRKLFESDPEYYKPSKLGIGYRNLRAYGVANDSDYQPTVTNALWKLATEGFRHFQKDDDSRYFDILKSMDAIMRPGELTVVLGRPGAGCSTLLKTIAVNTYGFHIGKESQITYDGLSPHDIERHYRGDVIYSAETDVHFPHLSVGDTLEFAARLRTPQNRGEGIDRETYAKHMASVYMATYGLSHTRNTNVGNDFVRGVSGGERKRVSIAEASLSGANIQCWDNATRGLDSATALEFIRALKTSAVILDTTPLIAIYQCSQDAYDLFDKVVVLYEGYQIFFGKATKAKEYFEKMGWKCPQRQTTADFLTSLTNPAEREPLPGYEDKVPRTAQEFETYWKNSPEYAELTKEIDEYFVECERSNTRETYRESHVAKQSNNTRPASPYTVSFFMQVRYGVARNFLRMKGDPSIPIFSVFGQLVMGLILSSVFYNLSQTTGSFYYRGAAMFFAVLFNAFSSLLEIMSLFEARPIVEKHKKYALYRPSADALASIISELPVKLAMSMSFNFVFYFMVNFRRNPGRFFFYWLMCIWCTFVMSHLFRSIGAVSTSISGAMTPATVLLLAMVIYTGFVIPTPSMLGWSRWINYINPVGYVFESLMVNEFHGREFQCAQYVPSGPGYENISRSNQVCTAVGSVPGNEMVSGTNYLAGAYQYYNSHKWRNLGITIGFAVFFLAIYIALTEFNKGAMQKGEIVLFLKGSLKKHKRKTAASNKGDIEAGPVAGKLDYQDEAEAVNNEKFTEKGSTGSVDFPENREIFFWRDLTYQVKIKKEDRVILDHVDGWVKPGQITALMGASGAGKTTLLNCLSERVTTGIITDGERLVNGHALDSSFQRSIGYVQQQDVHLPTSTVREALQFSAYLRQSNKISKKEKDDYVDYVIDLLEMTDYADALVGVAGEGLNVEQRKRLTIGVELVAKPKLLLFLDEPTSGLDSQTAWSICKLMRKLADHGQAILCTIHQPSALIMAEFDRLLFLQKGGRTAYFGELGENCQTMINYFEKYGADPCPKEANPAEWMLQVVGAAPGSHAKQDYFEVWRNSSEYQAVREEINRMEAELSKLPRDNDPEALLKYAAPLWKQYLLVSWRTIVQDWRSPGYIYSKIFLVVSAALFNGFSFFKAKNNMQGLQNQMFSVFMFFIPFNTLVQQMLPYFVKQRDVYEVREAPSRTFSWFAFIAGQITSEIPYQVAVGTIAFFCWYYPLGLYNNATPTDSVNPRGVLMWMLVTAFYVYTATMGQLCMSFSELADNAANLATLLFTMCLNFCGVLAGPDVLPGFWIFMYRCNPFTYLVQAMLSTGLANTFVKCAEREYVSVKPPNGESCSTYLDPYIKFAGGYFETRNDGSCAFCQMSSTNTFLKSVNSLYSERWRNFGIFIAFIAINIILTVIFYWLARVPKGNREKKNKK
Sequence of Protein Wnt-3a (P27467 whole entry): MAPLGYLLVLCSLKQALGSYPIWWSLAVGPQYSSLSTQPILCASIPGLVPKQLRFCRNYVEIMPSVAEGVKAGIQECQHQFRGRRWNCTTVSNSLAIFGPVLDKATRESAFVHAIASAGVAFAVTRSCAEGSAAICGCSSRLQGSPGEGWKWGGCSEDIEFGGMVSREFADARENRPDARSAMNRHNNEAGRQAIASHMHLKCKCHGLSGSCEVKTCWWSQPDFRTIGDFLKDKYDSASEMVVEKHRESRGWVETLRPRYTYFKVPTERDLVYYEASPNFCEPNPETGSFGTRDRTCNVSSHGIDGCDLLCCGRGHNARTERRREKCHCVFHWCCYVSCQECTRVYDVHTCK
Sequence of Serine/threonine-protein kinase pim-1 (P11309 whole entry, the tested form may be a part): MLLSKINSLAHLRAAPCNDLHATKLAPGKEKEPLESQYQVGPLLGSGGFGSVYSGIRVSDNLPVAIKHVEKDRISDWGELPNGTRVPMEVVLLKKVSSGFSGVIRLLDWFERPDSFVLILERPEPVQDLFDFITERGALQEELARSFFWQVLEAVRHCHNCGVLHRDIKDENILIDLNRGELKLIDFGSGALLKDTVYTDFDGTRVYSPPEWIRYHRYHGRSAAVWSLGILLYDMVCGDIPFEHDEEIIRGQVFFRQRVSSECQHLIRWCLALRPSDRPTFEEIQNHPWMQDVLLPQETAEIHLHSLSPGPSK
Sequence of Melanocortin receptor 4 (P32245 whole entry): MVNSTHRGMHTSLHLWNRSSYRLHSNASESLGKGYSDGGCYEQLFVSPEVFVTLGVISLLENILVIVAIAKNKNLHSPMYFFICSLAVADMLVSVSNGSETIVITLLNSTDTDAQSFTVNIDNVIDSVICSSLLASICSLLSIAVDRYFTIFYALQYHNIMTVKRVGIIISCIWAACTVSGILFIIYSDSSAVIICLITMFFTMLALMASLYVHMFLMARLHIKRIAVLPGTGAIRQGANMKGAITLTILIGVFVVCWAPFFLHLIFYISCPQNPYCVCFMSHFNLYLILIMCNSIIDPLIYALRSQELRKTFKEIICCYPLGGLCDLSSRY

CC(C)(C)N1CC(c2nc3ccccc3n2Cc2ccc(Cl)cc2)CC1=O (configuration not stated)
IC50 [1]: 1.23 µM (active)

CN(CC(=O)Nc1ccccc1N1CCOCC1)S(=O)(=O)c1ccc(Cl)cc1
EC50 [2]: > 104 µM (inactive)

CCCOC(=O)c1cccc(Nc2nc(-c3cccnc3)nc3ccccc23)c1
EC50 [3]: 0.534 µM (active)
EC50 [4]: 9.22 µM (active)
IC50 [5]: > 20 µM (inactive)
EC50 [6]: > 40 µM (inactive)
EC50 (Melanocortin receptor 4): > 89.3 µM (inactive)

Nc1nc(CN2CCCCCC2)nc(Nc2ccccc2)n1
AC50 [7]: 133 µM (active)

O=c1c2ccccc2nc2n1C(CSCc1cccc(C(F)(F)F)c1)CS2 (configuration not stated)
AC50 [8]: 1.68 µM (active)
AC50 [9]: 3.22 µM (active)
AC50 [10]: 0.863 µM (active)
IC50 (Protein Wnt-3a): 2.01 µM (active)
AC50 (Cytochrome P450 2D6): 7.08 µM (inconclusive)

O=C1C(Cc2ccccc2)Nc2ncnc(N3CCN(c4ccccc4)CC3)c2N1Cc1ccccc1 (configuration not stated)
EC50 [11]: > 195 µM (not active)
EC50 [12]: 14.7 µM (active)

O=C1c2cccc3cccc(c23)C(=O)N1CCCCCc1nnc(S)o1
AC50 [13]: 102 µM (active)

CCCCn1c(O)c(/N=N/c2ccccn2)c2ccccc21
EC50 [14]: 23.9 µM (inactive)

Cc1cc(Cl)cc2c1N[C@H](c1ccncc1)C1CC=CC21 (some centres not stated)
IC50 [15]: > 99 µM (inactive)
IC50 [16]: > 99 µM (inactive)

CC(CN1CCCCC1)C(=O)O (configuration not stated)
EC50 [17]: > 100 µM (inactive)
EC50 [18]: > 100 µM (inactive)

COc1ccc(C)cc1NC(=O)CCS(=O)(=O)c1ccc2c(c1)CC(C)N2C(=O)C1CC1 (configuration not stated)
EC50 [19]: > 100 µM (inactive)

Cc1ccc(-c2csc3nnc(SCC(N)=O)n23)cc1
IC50 [20]: > 99 µM (inactive)
IC50 [21]: > 99 µM (inactive)

O=C(O)C1CC(c2cccc(Br)c2)=NO1 (configuration not stated)
EC50 [17]: > 100 µM (inactive)
EC50 [18]: > 100 µM (inactive)

Cc1ccc2c(Nc3cc(OCc4ccccc4Br)ccc3Sc3ccc(O)cc3)ncnc2n1
Ki [22]: 5.01 µM (active)

Cc1cccc(C)c1NC(=O)C(c1cccc2ccccc12)n1c(=O)c(-c2ccco2)nc2ccccc21 (configuration not stated)
IC50 [23]: 2.56 µM (active)

Cc1ccc(C(=O)N/N=C/C=C/c2ccccc2)o1
IC50 [24]: 134 µM (inactive)

c1ccc2c(c1)c1c(c3ccccc32)CN2CCCC2C1 (configuration not stated)
IC50 [25]: > 99 µM (inactive)
CC50 [26]: 100 µM (active)
IC50 [27]: 111 µM (active)

From ChEMBL document CHEMBL1201862, “PubChem BioAssay data set” (2004)
